Experimental data as given in patent US8598084B2, “Synergistic herbicide/insecticide composition containing certain pyridine carboxylic acids and certain insecticides” (priority 2010, dated 2013).
Where “and” joins values, the source holds several entries; their conditions need not be identical. Equal values may be shown once.

How the values were obtained:
Type in all cases: in vivo
[1] = test system: barley (Hordeum vulgare L; HORVS); assay: Postemergence crop injury and safening, greenhouse, visual injury vs control
Experimental: (§1) Evaluation of Postemergence Herbicidal Activity of Mixtures in Cereal Crops
(§2) Seeds of the desired test plant species were planted in Sun Gro MetroMix® 306 planting mixture, which typically has a pH of 6.0 to 6.8 and an organic matter content of about 30 percent, in plastic pots with a surface area of 103.2 square centimeters (cm^2). When required to ensure good germination and healthy plants, a fungicide treatment and/or other chemical or physical treatment was applied. The plants were grown for 7-36 days (d) in a greenhouse with an approximate 14 hour (h) photoperiod which was maintained at about 18° C. during the day and 17° C. during the night. Nutrients and water were added on a regular basis and supplemental lighting was provided with overhead metal halide 1000-Watt lamps as necessary. The plants were employed for testing when they reached the second or third true leaf stage.
(§3) Treatments consisted of an insecticidal compound (as listed in Tables 1 through 18) and the cereal herbicide, 4-amino-3-chloro-6-(4-chloro-2-fluoro-3-methoxyphenyl)pyridine-2-carboxylic acid, alone and in combination. Weighed amounts of esters (methyl) or salts (triethylammonium, TEA) of 4-amino-3-chloro-6-(4-chloro-2-fluoro-3-methoxyphenyl)pyridine-2-carboxylic acid (Compound I) were placed in 25 milliliter (mL) glass vials and dissolved in a volume of 97:3 volume per volume (v/v) acetone/dimethyl sulfoxide (DMSO) to obtain 4.5 milligrams active ingredient per mL (mg ai/mL) concentrated solutions. […] The concentrated solutions of Compound I were diluted to 1.5 mg ai/mL with the addition of 2 volumes of an aqueous mixture containing acetone, water, isopropyl alcohol, DMSO, Agri-dex crop oil concentrate, and Triton® X-77 surfactant in a 64.7:26.0:6.7:2.0:0.7:0.01 v/v ratio. A dilution solution was prepared by mixing 1 volume of 97:3 v/v acetone/DMSO and 2 volumes of an aqueous mixture containing acetone, water, isopropyl alcohol, DMSO, Agri-dex crop oil concentrate, and Triton® X-77 surfactant in a 64.7:26.0:6.7:2.0:0.7:0.01 v/v ratio. Compound requirements are based upon a 12 mL application volume at a rate of 187 liters per hectare (L/ha). The concentrated solutions of the cereal insecticides were prepared following the same procedure. Weighed amounts of insecticide were placed in 25 milliliter (mL) glass vials and dissolved in a volume of 97:3 v/v acetone/DMSO to obtain concentrated insecticide solutions. The concentrated solutions of the safener were prepared following the same procedure. Weighed amounts of safener were placed in 25 mL glass vials and dissolved in a volume of 97:3 v/v acetone/DMSO to obtain concentrated safener solutions. The concentrated solutions were diluted to 0.75 mg/mL with an aqueous mixture of 1.5% v/v of Agri-dex crop oil concentrate.
(§4) Spray solutions of the cereal herbicide and the insecticidal compound mixtures were prepared by adding the concentrated solutions to the appropriate amount of dilution solution to form 12 mL spray solution with active ingredients in combinations. Spray solutions of the cereal herbicide, herbicide safener and the insecticidal compound mixtures were prepared by adding the concentrated solutions to the appropriate amount of dilution solution to form 12 mL spray solution with active ingredients in combinations. Formulated compounds were applied to the plant material with an overhead Mandel track sprayer equipped with 8002E nozzles calibrated to deliver 187 L/ha over an application area of 0.503 square meters (m^2) at a spray height of 18 inches […] above average plant canopy. Control plants were sprayed in the same manner with the solvent blank.
(§5) The treated plants and control plants were placed in a greenhouse as described above and watered by sub-irrigation to prevent wash-off of the test compounds. […]

[2] = test system: wheat (Triticum aestivum L; TRZAS); assay: as above
Experimental: as §1, §2, §3, §4, §5

[3] = test system: scented mayweed (Matricaria chamomila L; MATCH); assay: Postemergence herbicidal activity of mixtures, greenhouse, visual injury vs control
Experimental: as §1, §2, §3, §4, §5

[4] = test system: kochia (Kochia scoparia L; KCHSC); assay: as above
Experimental: as §1, §2, §3, §4, §5

[5] = test system: Russian thistle (Salsola iberica L; SASKR); assay: as above
Experimental: as §1, §2, §3, §4, §5

[6] = test system: wild pansy (Viola tricolor L; VIOTR); assay: as above
Experimental: as §1, §2, §3, §4, §5

[7] = test system: redroot pigweed (Amaranthus retroflexus L; AMARE); assay: as above; conditions: 17.5 g/ha alone
Experimental: as §1, §2, §3, §4, §5

[8] = test system: bird's-eye speedwell (Veronica persica L; VERPE); assay: as above; conditions: Veronica persica, post-emergence, read-out: Ob (observed injury);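 note: visual score 0 means no injury and 100 means complete kill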
Experimental: as §1, §2, §3, §4, §5

[9] = test system: Canada thistle (Cirsium arvense L; CIRAR); assay: as above; conditions: 17.5 g/ha alone
Experimental: as §1, §2, §3, §4, §5

[10] = application rate g/ha: Compound I methyl ester 35, Malathion 0, Cloquintocet 0

COC(=O)c1nc(-c2ccc(Cl)c(OC)c2F)cc(N)c1Cl [Compound I Methyl ester, 4-amino-3-chloro-6-(4-chloro-2-fluoro-3-methoxyphenyl)pyridine-2-carboxylic acid methyl ester]
Ob (observed injury) ([1]; 35 g/ha alone, crop injury): 28% and 32% | HORVS Ob [1, 10]: 32 | Ob (observed injury) ([2]; 35 g/ha alone, crop injury): 39% and 41% | TRZAS Ob [2, 10]: 41 | pest or weed control at 8.75 g/ha ([3]; Matricaria, post-emergence, 8.75 g/ha alone, read-out: Ob (observed injury)): 67% | pest or weed control at 17.5 g/ha ([3]; Matricaria, post-emergence, 17.5 g/ha alone, read-out: Ob (observed injury)): 80% | pest or weed control at 35 g/ha ([3]; Matricaria, post-emergence, 35 g/ha alone, read-out: Ob (observed injury)): 88% | MATCH Ob [3, 10]: 88 | pest or weed control at 8.75 g/ha ([4]; Bassia scoparia, post-emergence, 8.75 g/ha alone, read-out: Ob (observed injury)): 79% | pest or weed control at 17.5 g/ha ([4]; Bassia scoparia, post-emergence, 17.5 g/ha alone, read-out: Ob (observed injury)): 88% | pest or weed control at 35 g/ha ([4]; Bassia scoparia, post-emergence, 35 g/ha alone, read-out: Ob (observed injury)): 97% | KCHSC Ob [4, 10]: 97 | pest or weed control at 8.75 g/ha ([5]; Salsola tragus, post-emergence, 8.75 g/ha alone, read-out: Ob (observed injury)): 71% | pest or weed control at 17.5 g/ha ([5]; Salsola tragus, post-emergence, 17.5 g/ha alone, read-out: Ob (observed injury)): 81% | pest or weed control at 35 g/ha ([5]; Salsola tragus, post-emergence, 35 g/ha alone, read-out: Ob (observed injury)): 89% | SASKR Ob [5, 10]: 89 | pest or weed control at 8.75 g/ha ([6]; Viola tricolor, post-emergence, 8.75 g/ha alone, read-out: Ob (observed injury)): 36% | pest or weed control at 17.5 g/ha ([6]; Viola tricolor, post-emergence, 17.5 g/ha alone, read-out: Ob (observed injury)): 44% | pest or weed control at 35 g/ha ([6]; Viola tricolor, post-emergence, 35 g/ha alone, read-out: Ob (observed injury)): 56% | VIOTR Ob [6, 10]: 56 | Ob (observed injury) [7]: 90% | pest or weed control at 8.75 g/ha ([8]; 8.75 g/ha alone): 36% | pest or weed control at 17.5 g/ha ([8]; 17.5 g/ha alone): 47% | pest or weed control at 35 g/ha ([8]; 35 g/ha alone): 73% | Ob (observed injury) [9]: 62%
